Results reported in patent US20120270819A1, “USE OF COMPOUNDS WITH SGLT-1/SGLT-2 INHIBITOR ACTIVITY FOR PRODUCING MEDICAMENTS FOR TREATMENT OF BONE DISEASE” (SANOFI, priority 2009, published 2012).

Tested on: female Sprague-Dawley mature and young adult rats
Assay: Ex vivo pQCT of L3 and L4 lumbar vertebrae
Format: in vivo, rat
Details: L3 + L4 vertebral bodies; for pQCT Total Area / pQCT Total BMC / pQCT Total BMD / pQCT Trabecular Area / pQCT Trabecular BMC / pQCT Trabecular BMD: mean
Procedure: Peripheral QCT scans were performed ex vivo using an XCT Research SA or SA+ bone scanner with software version 5.50D. Scans were obtained for the right femur, L3 and L4 lumbar vertebra for all animals euthanized at the end of the treatment period as well as two found dead animals. These two animals were scanned twice due to technical oversight, however only the first scans obtained were reported and the second scans were kept with the study file, this had no impact on the study as both scans were considered equivalent.
For the vertebrae, the scans were obtained at the midpoint. The L3 vertebrae from four animal and L4 vertebrae from four animals were damaged at trimming and L4 vertebrae from one animal was lost during trimming, consequently, no scans were obtained on these vertebrae. Additional slices were obtained as considered appropriate to ensure the optimal scans and data acquisition.
All analyses were performed using the LOOP option of the analysis software. All other data generated as a result of the LOOP option were retained with the raw data but not reported. The most appropriate analysis mode for the femur and the lumbar vertebrae was used and documented in the raw data and the analysis details are presented in Table 6. All scan analysis data was retained and re-analyses documented.

COc1ccc(Cc2c(OC3OC(CO)C(F)C(O)C3O)n[nH]c2C(F)(F)F)cc1 (stereo not drawn) [Example 5 of formula II]
pQCT Total Area, percent difference from Vehicle Control (mature adults, 10 mg/kg/day): 2.3%
pQCT Total BMC, percent difference from Vehicle Control (mature adults, 10 mg/kg/day): 5.9%
pQCT Total BMD, percent difference from Vehicle Control (mature adults, 10 mg/kg/day): 3.6%
pQCT Trabecular Area, percent difference from Vehicle Control (mature adults, 10 mg/kg/day): 2.4%
pQCT Trabecular BMC, percent difference from Vehicle Control (mature adults, 10 mg/kg/day): 9.0%
pQCT Trabecular BMD, percent difference from Vehicle Control (mature adults, 10 mg/kg/day): 6.9%
pQCT Total Area (mature adults, 10 mg/kg/day): 7.7 mm^2
pQCT Total BMC (mature adults, 10 mg/kg/day): 5.6 mg/mm
pQCT Total BMD (mature adults, 10 mg/kg/day): 727.9 mg/cm^3
pQCT Trabecular Area (mature adults, 10 mg/kg/day): 3.5 mm^2
pQCT Trabecular BMC (mature adults, 10 mg/kg/day): 1.7 mg/mm
pQCT Trabecular BMD (mature adults, 10 mg/kg/day): 486.9 mg/cm^3
pQCT Total Area, percent difference from Vehicle Control (mature adults, 50 mg/kg/day): 7.4%
pQCT Total BMC, percent difference from Vehicle Control (mature adults, 50 mg/kg/day): 12.4%
pQCT Total BMD, percent difference from Vehicle Control (mature adults, 50 mg/kg/day): 4.5%
pQCT Trabecular Area, percent difference from Vehicle Control (mature adults, 50 mg/kg/day): 7.5%
pQCT Trabecular BMC, percent difference from Vehicle Control (mature adults, 50 mg/kg/day): 15.1%
pQCT Trabecular BMD, percent difference from Vehicle Control (mature adults, 50 mg/kg/day): 6.8%
pQCT Total Area (mature adults, 50 mg/kg/day): 8.1 mm^2
pQCT Total BMC (mature adults, 50 mg/kg/day): 5.9 mg/mm
pQCT Total BMD (mature adults, 50 mg/kg/day): 734.0 mg/cm^3
pQCT Trabecular Area (mature adults, 50 mg/kg/day): 3.6 mm^2
pQCT Trabecular BMC (mature adults, 50 mg/kg/day): 1.8 mg/mm
pQCT Trabecular BMD (mature adults, 50 mg/kg/day): 486.4 mg/cm^3
pQCT Total Area, percent difference from Vehicle Control (young adults, 10 mg/kg/day): 1.7%
pQCT Total BMC, percent difference from Vehicle Control (young adults, 10 mg/kg/day): 8.5%
pQCT Total BMD, percent difference from Vehicle Control (young adults, 10 mg/kg/day): 6.9%
pQCT Trabecular Area, percent difference from Vehicle Control (young adults, 10 mg/kg/day): 1.6%
pQCT Trabecular BMC, percent difference from Vehicle Control (young adults, 10 mg/kg/day): 10.5%
pQCT Trabecular BMD, percent difference from Vehicle Control (young adults, 10 mg/kg/day): 8.9%
pQCT Total Area (young adults, 10 mg/kg/day): 7.4 mm^2
pQCT Total BMC (young adults, 10 mg/kg/day): 4.9 mg/mm
pQCT Total BMD (young adults, 10 mg/kg/day): 659.9 mg/cm^3
pQCT Trabecular Area (young adults, 10 mg/kg/day): 3.4 mm^2
pQCT Trabecular BMC (young adults, 10 mg/kg/day): 1.6 mg/mm
pQCT Trabecular BMD (young adults, 10 mg/kg/day): 461.6 mg/cm^3
pQCT Total Area, percent difference from Vehicle Control (young adults, 50 mg/kg/day): −5.1%
pQCT Total BMC, percent difference from Vehicle Control (young adults, 50 mg/kg/day): 2.7%
pQCT Total BMD, percent difference from Vehicle Control (young adults, 50 mg/kg/day): 8.6%
pQCT Trabecular Area, percent difference from Vehicle Control (young adults, 50 mg/kg/day): −5.0%
pQCT Trabecular BMC, percent difference from Vehicle Control (young adults, 50 mg/kg/day): 2.7%
pQCT Trabecular BMD, percent difference from Vehicle Control (young adults, 50 mg/kg/day): 8.9%
pQCT Total Area (young adults, 50 mg/kg/day): 6.9 mm^2
pQCT Total BMC (young adults, 50 mg/kg/day): 4.7 mg/mm
pQCT Total BMD (young adults, 50 mg/kg/day): 670.6 mg/cm^3
pQCT Trabecular Area (young adults, 50 mg/kg/day): 3.1 mm^2
pQCT Trabecular BMC (young adults, 50 mg/kg/day): 1.4 mg/mm
pQCT Trabecular BMD (young adults, 50 mg/kg/day): 461.9 mg/cm^3
